Like-named read-outs stand apart in the source and are kept apart here.
Legend:
Assay in all cases: NCI60 five-dose screen
[1] = system: 786-0; type: cell-based; settings: Homo sapiens, 786-0, renal cancer; for CC50: read-out: LC50 (the source's name)
[2] = system: RXF 393; type: cell-based; settings: Homo sapiens, RXF 393, renal cancer; for CC50: read-out: LC50 (the source's name)
[3] = system: M14; type: cell-based; settings: Homo sapiens, M14, melanoma; for CC50: read-out: LC50 (the source's name)
[4] = system: COLO 205; type: cell-based, human; settings: Homo sapiens; for CC50: COLO 205, COLO 205, colon cancer, read-out: LC50 (the source's name); for GI50: COLO 205, colon cancer
[5] = system: EKVX; type: cell-based; settings: Homo sapiens, NSC lung cancer; for CC50: read-out: LC50 (the source's name)
[6] = system: UACC-62; type: cell-based; settings: Homo sapiens, UACC-62, melanoma; for CC50: read-out: LC50 (the source's name)
[7] = system: SK-MEL-5; type: cell-based, human; settings: Homo sapiens; for CC50: SK-MEL-5, SK-MEL-5, melanoma, read-out: LC50 (the source's name); for GI50: SK-MEL-5, melanoma
[8] = system: NCI-H23; type: cell-based; settings: Homo sapiens, NCI-H23, NSC lung cancer; for CC50: read-out: LC50 (the source's name)
[9] = system: SK-MEL-2; type: cell-based; settings: Homo sapiens, SK-MEL-2, melanoma; for CC50: read-out: LC50 (the source's name)
[10] = system: MCF7; type: cell-based; settings: Homo sapiens, MCF7, breast cancer; for CC50: read-out: LC50 (the source's name)
[11] = system: IGROV1; type: cell-based; settings: Homo sapiens, IGROV-1; IGROV1, ovarian cancer
[12] = system: MDA-MB-435; type: cell-based, human; settings: for CC50: read-out: LC50 (the source's name)
[13] = system: SR; type: cell-based; settings: Homo sapiens, leukemia; for CC50: read-out: LC50 (the source's name)
[14] = Homo sapiens, MDA-MB-435, MDA-MB-435, melanoma
[15] = Homo sapiens, MDA-MB-435, melanoma

SMILES | GI50 [1] [µM] | CC50 [1] [µM] | GI50 [2] [µM] | CC50 [2] [µM] | GI50 [3] [µM] | CC50 [3] [µM] | CC50 [4] [µM] | GI50 [4] [µM] | GI50 [5] [µM] | CC50 [5] [µM] | GI50 [6] [µM] | CC50 [6] [µM] | CC50 [7] [µM] | GI50 [7] [µM] | GI50 [8] [µM] | CC50 [8] [µM] | GI50 [9] [µM] | CC50 [9] [µM] | GI50 [10] [µM] | CC50 [10] [µM] | other results
CCOC(=O)c1cc(/C=N/NC(=O)c2[nH]c3ccc(Br)cc3c2-c2ccccc2)c[nH]1 [Derivative 3v, Ethyl (E)-4-((2-(5-bromo-3-phenyl-1H-indole-2-carbonyl)hydrazono)methyl)-1H-pyrrole-2-carboxylate] | 6.01 | 53.3 | 2.56 | 33 | 3.54 | 41.3 | 34.8 | 3.51 | 7.14 | 60.7 | 3.18 | 40.7 | 17.9 | 2.01 | 3.42 | 40.4 | 4.37 | 47.3 | 3.03 | 40.3 | GI50 [11]: 3.75 µM; CC50 [12, 14]: 9.35 µM; GI50 [12, 15]: 1.54 µM; CC50 ([12]; MDA-MB-435, melanoma): 9.53 µM
CCOC(=O)c1ccc(/C=N/NC(=O)c2[nH]c3ccc(Br)cc3c2-c2ccccc2)[nH]1 [Derivative 3i, Ethyl (E)-5-((2-(5-bromo-3-phenyl-1H-indole-2-carbonyl)hydrazono)methyl)-1H-pyrrole-2-carboxylate] | 4.48 | > 100 | 1.69 | 66.4 | 2.73 | 71.9 | 36.9 | 3.15 | 4.29 | > 100 | 0.614 | 48.5 | 7.68 | 1.48 | 2.59 | 43.2 | 2.38 | 55 | 1.54 | > 100 | GI50 [11]: 2.02 µM; CC50 [12, 14]: 27.6 µM; GI50 [12, 15]: 0.464 µM
CCOC(=O)c1c[nH]c(/C=N/NC(=O)c2[nH]c3ccc(Br)cc3c2-c2ccccc2)c1 [Derivative 3j, Ethyl (E)-5-((2-(5-bromo-3-phenyl-1H-indole-2-carbonyl)hydrazono)methyl)-1H-pyrrole-3-carboxylate] | 3.29 | 44.7 | 1.36 | 22 | 2.39 | 50.3 | 55.2 | 2.49 | 4.57 | 43.1 | 2.92 | 42.6 | 10.1 | 1.44 | 3.06 | 46.4 | 2.8 | 32.8 | 2.76 | 50.2 | GI50 [13]: 0.948 µM; CC50 [13]: > 100 µM; GI50 [11]: 3.91 µM; CC50 [12, 14]: 16.1 µM; GI50 [12, 15]: 1.09 µM
Cc1[nH]c(/C=N/NC(=O)c2[nH]c3ccc(Br)cc3c2-c2ccccc2)c(C)c1[N+](=O)[O-] [Derivative 3r, (E)-5-Bromo-N′-((3,5-dimethyl-4-nitro-1H-pyrrol-2-yl)methylene)-3-phenyl-1H-indole-2-carbohydrazide] | 2.35 | 17 | 1.7 | 15.9 | 2.54 | 36.3 | 7.51 | 1.9 | 3.34 | 34.9 | 2.9 | 37.5 | 5.87 | 1.5 | 2.46 | 26.3 | 2.11 | 22.6 | 2.57 | 29.9 | GI50 [13]: 2.04 µM; CC50 [13]: > 100 µM; GI50 [11]: 3.83 µM; CC50 [12, 14]: 17.9 µM; GI50 [12, 15]: 1.77 µM

Source: article PMC12203311, “Design, synthesis, in silico and in vitro evaluation of pyrrole–indole hybrids as dual tubulin and aromatase inhibitors with potent anticancer activities” (RSC Advances, 2025)
